Results from patent US20250049033A1, “PESTICIDALLY ACTIVE PYRIDAZINONE COMPOUNDS” (SYNGENTA CROP PROTECTION AG, priority 2021, published 2025).

Experiments:
Format in all cases: in vivo
Spodoptera littoralis = assay: Activity against Spodoptera littoralis (Egyptian cotton leaf worm), cotton leaf discs, L1 larvae; conditions: foliar, 72 h, application rate 200 ppm, 3 days after infestation, vs untreated, read-out: control in at least one of the three categories (mortality, anti-feedant effect, or growth inhibition)
Procedure: Example B8: Activity Against Spodoptera littoralis (Egyptian Cotton Leaf Worm)
Cotton leaf discs were placed onto agar in 24-well microtiter plates and sprayed with aqueous test solutions prepared from 10′000 ppm DMSO stock solutions. After drying the leaf discs were infested with five L1 larvae. The samples were assessed for mortality, anti-feeding effect, and growth inhibition in comparison to untreated samples 3 days after infestation. Control of Spodoptera littoralis by a test sample is given when at least one of the categories mortality, anti-feedant effect, and growth inhibition is higher than the untreated sample.

Myzus persicae [1] = assay: Activity against Myzus persicae (green peach aphid), feeding/contact activity; conditions: foliar, 144 h, application rate 200 ppm, 6 days after infestation, sunflower leaf discs, mixed ages
Procedure: Example B5: Activity Against Myzus persicae (Green Peach Aphid). Feeding/Contact Activity
Sunflower leaf discs were placed onto agar in a 24-well microtiter plate and sprayed with aqueous test solutions prepared from 10′000 ppm DMSO stock solutions. After drying, the leaf discs were infested with an aphid population of mixed ages. The samples were assessed for mortality 6 days after infestation.

Euschistus heros = assay: Activity against Euschistus heros (neotropical brown stink bug), soybean leaves, N2 nymphs; conditions: 120 h, application rate 200 ppm, 5 days after infestation, vs untreated, read-out: effect in at least one of the two categories (mortality or growth inhibition)
Procedure: Example B3: Activity Against Euschistus heros (Neotropical Brown Stink Bug)
Soybean leaves on agar in 24-well microtiter plates were sprayed with aqueous test solutions prepared from 10′000 ppm DMSO stock solutions. After drying the leaves were infested with N2 nymphs. The samples were assessed for mortality and growth inhibition in comparison to untreated samples 5 days after infestation.

Diabrotica balteata = assay: Activity against Diabrotica balteata (corn root worm), maize sprouts, L2 larvae; conditions: 96 h, application rate 200 ppm, 4 days after infestation, vs untreated, read-out: control in at least one of the two categories (mortality or growth inhibition)
Procedure: Example B2: Activity Against Diabrotica balteata (Corn Root Worm)
Maize sprouts placed onto an agar layer in 24-well microtiter plates were treated with aqueous test solutions prepared from 10′000 ppm DMSO stock solutions by spraying. After drying, the plates were infested with L2 larvae (6 to 10 per well). The samples were assessed for mortality and growth inhibition in comparison to untreated samples 4 days after infestation.

Chilo suppressalis = assay: Activity against Chilo suppressalis (striped rice stemborer), artificial diet, L2 larvae; conditions: 144 h, application rate 200 ppm, 6 days after infestation, vs untreated, read-out: control in at least one of the three categories (mortality, anti-feedant effect, or growth inhibition)
Procedure: Example B1: Activity Against Chilo suppressalis (Striped Rice Stemborer)
24-well microtiter plates with artificial diet were treated with aqueous test solutions prepared from 10′000 ppm DMSO stock solutions by pipetting. After drying, the plates were infested with L2 larvae (6-8 per well). The samples were assessed for mortality, anti-feeding effect, and growth inhibition in comparison to untreated samples 6 days after infestation. Control of Chilo suppressalis by a test sample is given when at least one of the categories mortality, anti-feedant effect, and growth inhibition is higher than the untreated sample.

Plutella xylostella = assay: Activity against Plutella xylostella (diamond back moth), artificial diet, eggs; conditions: 192 h, application rate 200 ppm, 8 days after infestation, vs untreated, read-out: control in at least one of the two categories (mortality or growth inhibition)
Procedure: Example B7: Activity Against Plutella xylostella (Diamond Back Moth)
24-well microtiter plates with artificial diet were treated with aqueous test solutions prepared from 10′000 ppm DMSO stock solutions by pipetting. After drying, Plutella eggs were pipetted through a plastic stencil onto a gel blotting paper and the plate was closed with it. The samples were assessed for mortality and growth inhibition in comparison to untreated samples 8 days after infestation. The following compounds gave an effect of at least 80% control in at least one of the two categories (mortality or growth inhibition) at an application rate of 200 ppm: P1, P2, P3, P4, P6, P7, P8, P9, P10, P11, P12, P13, P14, P15, P16, P17, P18, P19, P20, P21, P22, P23, P24, P25, P26, P27.

Myzus persicae [2] = assay: Activity against Myzus persicae (green peach aphid), intrinsic activity; conditions: 120 h, test rate 12 ppm, 5 days after infestation, sucrose solution through Parafilm
Excerpt: Example B6: Activity Against Myzus persicae (Green Peach Aphid). Intrinsic Activity
Test compounds prepared from 10′000 ppm DMSO stock solutions were applied by pipette into 24-well microtiter plates and mixed with sucrose solution. The plates were closed with a stretched Parafilm. A plastic stencil with 24 holes was placed onto the plate and infested pea seedlings were placed directly on the Parafilm. The infested plate was closed with a gel blotting paper and another plastic stencil and then turned upside down. The samples were assessed for mortality 5 days after infestation.

CC(Nc1ncnc2c(Cl)cc(C(F)(F)F)cc12)c1nccnc1-c1ccc(=O)n(C)n1 (stereo not drawn) [P13, 6-[3-[1-[[8-chloro-6-(trifluoromethyl)quinazolin-4-yl]amino]ethyl]pyrazin-2-yl]-2-methyl-pyridazin-3-one]
≥ 80%: percent control (mortality, anti-feedant effect or growth inhibition) at 200 ppm (Spodoptera littoralis) | mortality at 200 ppm (Myzus persicae [1]) | percent effect (mortality or growth inhibition) at 200 ppm (Euschistus heros) | percent control (mortality or growth inhibition) at 200 ppm (Diabrotica balteata) | percent control (mortality, anti-feedant effect or growth inhibition) at 200 ppm (Chilo suppressalis) | percent control (mortality or growth inhibition) at 200 ppm (Plutella xylostella) | mortality at 12 ppm (Myzus persicae [2])

CCn1nc(-n2ncnc2[C@H](C)N(C)c2ncnc3c(C(F)(F)F)cc(Cl)cc23)ccc1=O [P15, 6-[5-[(1S)-1-[[6-chloro-8-(trifluoro-methyl)quinazolin-4-yl]-methyl-amino]ethyl]-1,2,4-triazol-1-yl]-2-ethyl-pyrid-azin-3-one]
≥ 80%: percent control (mortality, anti-feedant effect or growth inhibition) at 200 ppm (Spodoptera littoralis) | mortality at 200 ppm (Myzus persicae [1]) | percent effect (mortality or growth inhibition) at 200 ppm (Euschistus heros) | percent control (mortality or growth inhibition) at 200 ppm (Diabrotica balteata) | percent control (mortality, anti-feedant effect or growth inhibition) at 200 ppm (Chilo suppressalis) | percent control (mortality or growth inhibition) at 200 ppm (Plutella xylostella) | mortality at 12 ppm (Myzus persicae [2])

CCn1nc(-n2ncnc2[C@H](C)Nc2ncnc3c(Cl)cc(C(F)(F)F)cc23)ccc1=O [P17, 6-[5-[(1S)-1-[[8-chloro-6-(trifluoromethyl)quinazolin-4-yl]amino]ethyl]-1,2,4-triazol-1-yl]-2-ethyl-pyridazin-3-one]
≥ 80%: percent control (mortality, anti-feedant effect or growth inhibition) at 200 ppm (Spodoptera littoralis) | mortality at 200 ppm (Myzus persicae [1]) | percent effect (mortality or growth inhibition) at 200 ppm (Euschistus heros) | percent control (mortality or growth inhibition) at 200 ppm (Diabrotica balteata) | percent control (mortality, anti-feedant effect or growth inhibition) at 200 ppm (Chilo suppressalis) | percent control (mortality or growth inhibition) at 200 ppm (Plutella xylostella) | mortality at 12 ppm (Myzus persicae [2])

CCn1nc(-n2ncnc2[C@H](C)Nc2ncnc3c(C(F)(F)F)cc(Cl)cc23)ccc1=O [P19, 6-[5-[(1S)-1-[[6-chloro-8-(trifluoro-methyl)quinazolin-4-yl]amino]ethyl]-1,2,4-triazol-1-yl]-2-ethyl-pyridazin-3-one]
≥ 80%: percent control (mortality, anti-feedant effect or growth inhibition) at 200 ppm (Spodoptera littoralis) | mortality at 200 ppm (Myzus persicae [1]) | percent effect (mortality or growth inhibition) at 200 ppm (Euschistus heros) | percent control (mortality or growth inhibition) at 200 ppm (Diabrotica balteata) | percent control (mortality, anti-feedant effect or growth inhibition) at 200 ppm (Chilo suppressalis) | percent control (mortality or growth inhibition) at 200 ppm (Plutella xylostella) | mortality at 12 ppm (Myzus persicae [2])

CCn1nc(-n2ncnc2[C@H](C)N(C)c2ncnc3c(Cl)cc(C(F)(F)F)cc23)ccc1=O [P22, 6-[5-[(1S)-1-[[8-chloro-6-(trifluoro-methyl)quinazolin-4-yl]-methyl-amino]ethyl]-1,2,4-triazol-1-yl]-2-ethyl-pyrid-azin-3-one]
≥ 80%: percent control (mortality, anti-feedant effect or growth inhibition) at 200 ppm (Spodoptera littoralis) | mortality at 200 ppm (Myzus persicae [1]) | percent effect (mortality or growth inhibition) at 200 ppm (Euschistus heros) | percent control (mortality or growth inhibition) at 200 ppm (Diabrotica balteata) | percent control (mortality, anti-feedant effect or growth inhibition) at 200 ppm (Chilo suppressalis) | percent control (mortality or growth inhibition) at 200 ppm (Plutella xylostella) | mortality at 12 ppm (Myzus persicae [2])

C[C@@H](c1ncnn1C1=NN(C)C(=O)CC1)N(C)c1ncnc2c(C(F)(F)F)cc(Cl)cc12 [P24]
≥ 80%: percent control (mortality, anti-feedant effect or growth inhibition) at 200 ppm (Spodoptera littoralis) | mortality at 200 ppm (Myzus persicae [1]) | percent effect (mortality or growth inhibition) at 200 ppm (Euschistus heros) | percent control (mortality or growth inhibition) at 200 ppm (Diabrotica balteata) | percent control (mortality, anti-feedant effect or growth inhibition) at 200 ppm (Chilo suppressalis) | percent control (mortality or growth inhibition) at 200 ppm (Plutella xylostella) | mortality at 12 ppm (Myzus persicae [2])
